Assay [1] deals with Arachidonate-Induced Bronchospasm (lipoxygenase). The experiment in a line: Pulmonary Mechanics Assay: arachidonate-induced bronchospasm with indomethacin (SRS-A response, indicative of lipoxygenase inhibition). The assay is classed as in vivo, male Hartley guinea pigs. As to conditions: Cavia porcellus, guinea pig. Put shortly: (§1)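 Urethane-anaesthetised (2 g/kg i.p.), succinylcholine-paralysed, ventilated male Hartley guinea pigs; compound given by various routes between i.v. arachidonic acid challenges (0.5-1.0 mg/kg; then 5-10 mg/kg after indomethacin 10 mg/kg i.v.). Cdyn and RL changes expressed as percent inhibition of control.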

The test system of assay [2] is Arachidonate-Induced Ear Edema. In words: Arachidonic Acid-Induced Ear Edema Assay. The assay is classed as in vivo. As to conditions: topical, mouse ear; for inhibition in vivo at 0.4 mg: 400 μg topically; for inhibition in vivo at 0.4 mg / inhibition in vivo at 0.2 mg: read-out: Inhibition of Arachidonate-Induced Ear Edema, % Inh. (μg topically); for inhibition in vivo at 0.2 mg: 200 μg topically. The protocol: The topical anti-inflammatory activity of a compound was determined by its ability to inhibit an experimentally-induced inflammation in the mouse ear. Basically, four milligrams of arachidonic acid in acetone were applied to the dorsal surface of one ear with a microliter pipette. The mice were sacrificed at various times after application of arachidonic acid (one-half to six hours). A section of each ear was removed with a 7 mm round punch and weighed on an electronic or analytical balance. The difference in weight between treated and untreated ears was determined. Compounds to be evaluated for anti-inflammatory activity can be incorporated directly into the irritant mixture or at various times prior to or after application of arachidonic acid.
The degree of anti-inflammatory activity is shown in Table I, and is expressed in terms of the percent inhibition of ear weight increase.

Assay [3] concerns the target T1, 5-lipoxygenase (Rattus norvegicus, UniProt P12527).
T1 construct: The cell-free homogenate was prepared by sonication of the cells followed by centrifugation at 40,000 xg; endogenous in cells; host or cells: RBL-1 (rat basophilic leukemia) cells, 40,000 xg supernatant of the sonicate
T1 sequence (P12527 1-673): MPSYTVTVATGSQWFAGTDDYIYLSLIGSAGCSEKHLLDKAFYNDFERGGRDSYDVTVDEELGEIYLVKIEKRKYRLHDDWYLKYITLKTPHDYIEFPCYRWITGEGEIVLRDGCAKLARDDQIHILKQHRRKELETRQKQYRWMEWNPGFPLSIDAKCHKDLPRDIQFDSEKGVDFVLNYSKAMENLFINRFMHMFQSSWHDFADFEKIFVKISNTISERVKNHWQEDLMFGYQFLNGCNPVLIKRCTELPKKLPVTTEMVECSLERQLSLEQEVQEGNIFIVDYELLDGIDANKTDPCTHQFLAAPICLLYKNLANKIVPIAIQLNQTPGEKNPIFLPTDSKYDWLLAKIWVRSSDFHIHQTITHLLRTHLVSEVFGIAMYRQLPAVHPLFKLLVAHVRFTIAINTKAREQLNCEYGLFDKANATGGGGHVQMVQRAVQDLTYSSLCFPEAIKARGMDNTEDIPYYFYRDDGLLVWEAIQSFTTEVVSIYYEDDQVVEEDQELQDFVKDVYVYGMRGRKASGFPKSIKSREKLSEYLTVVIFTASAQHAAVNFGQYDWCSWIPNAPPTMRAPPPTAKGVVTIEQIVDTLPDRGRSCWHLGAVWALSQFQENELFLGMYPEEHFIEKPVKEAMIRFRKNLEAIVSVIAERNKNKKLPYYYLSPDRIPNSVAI
In words: Inhibition of 5-lipoxygenase in cell-free homogenate of rat basophilic leukemia (RBL-1) cells. It is filed as biochemical. As to conditions: RBL-1 cell-free homogenate; for inhibition at 3 µM: read-out: Inhibition of 5-Lipoxygenase, % Inh. @ 3 μM. An outline of the steps: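 40,000 xg supernatant of sonicated RBL-1 cell homogenate incubated with ^14C-arachidonic acid and CaCl2, with drug or vehicle. Products extracted after acidification, separated by TLC and quantified by scintillation counting; IC50 or percent inhibition at 3 μM reported.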

The test system of assay [4] is Arachidonate-Induced Bronchospasm (cyclooxygenase). In words: Pulmonary Mechanics Assay: arachidonate-induced bronchospasm without indomethacin (indicative of cyclooxygenase inhibition). It is filed as in vivo, male Hartley guinea pigs. As to conditions: Cavia porcellus, guinea pig. An outline of the steps: as §1
Where [5] appears, read: ID dosing, read-out: Inhibition of Arachidonate-Induced Bronchospasm (ID Dosing), % Inh. with Indomethacin.
Setting [6] is: ID dosing, read-out: Inhibition of Arachidonate-Induced Bronchospasm (ID Dosing), % Inh. without Indomethacin.
The mark [7] stands for this setting: IV dosing, read-out: Inhibition of Arachidonate-Induced Bronchospasm (IV Dosing), % Inh. with Indomethacin.
The mark [8] stands for this setting: IV dosing, read-out: Inhibition of Arachidonate-Induced Bronchospasm (IV Dosing), % Inh. without Indomethacin.

By inhibition is commonly meant the change of the read-out against control, counted positive when it falls. With `CCCCCCCCCCNC(=O)N(O)CCCC(=O)OCC` [Example 19, N-Decyl-N'-[3-(ethoxycarbonyl)propyl]-N'-hydroxyurea], the inhibition in vivo at 50 mg/kg in assay [1] (setting [5]) was 0%. In assay [2], the “Inhibition of Arachidonate-Induced Ear Edema, ED50” value (shortened to “Inhibition … ED50”) came to 183 µg and the inhibition in vivo at 0.4 mg stood at 60%. Moreover, in assay [3], the inhibition at 3 µM amounted to 94%. The inhibition in vivo at 50 mg/kg in assay [4] (setting [6]) was -89%.
As a reminder, the IC50 is the midpoint of a concentration-inhibition curve. Regarding `CCCCCCCCCCN(O)C(=O)N(C)C` [Example 11, N,N-Dimethyl-N'-decyl-N'-hydroxyurea], the figures for the inhibition in vivo at 50 mg/kg in assay [1] (setting [5]) and in assay [4] (setting [6]) were -46% and 36%, respectively. For the same molecule, the inhibition in vivo at 15 mg/kg is 98% in assay [1] (setting [7]) and 95% in assay [4] (setting [8]). Also, the “Inhibition … ED50” value in assay [2] came to 43 µg. Moreover, in assay [2], the inhibition in vivo at 0.4 mg stood at 90%. The molecule also returned an IC50 in assay [3] of 100 nM.
For the molecule `CCCCCCCCCCNC(=O)N(C)O` [Example 16, N-Decyl-N'-methyl-N'-hydroxyurea], the inhibition in vivo at 100 mg/kg was 35% in assay [1] (ID dosing, 100 mg/kg, read-out: Inhibition of Arachidonate-Induced Bronchospasm (ID Dosing), % Inh. with Indomethacin) and under 20% in assay [4] (ID dosing, 100 mg/kg, read-out: Inhibition of Arachidonate-Induced Bronchospasm (ID Dosing), % Inh. without Indomethacin). Besides, the inhibition in vivo at 15 mg/kg in assay [1] (setting [7]) worked out at 58%; in assay [4] (setting [8]) it was 55%. For the same molecule, the “Inhibition … ED50” value in assay [2] was 28 µg. Moreover, the inhibition in vivo at 0.4 mg in assay [2] amounted to 73%. The molecule also registered a half-inhibitory concentration (IC50) in assay [3] of 210 nM.
Turning to `CCCCCCCCCCN(O)C(=O)N(CC)CC` [Example 1, N,N-Diethyl-N'-decyl-hydroxyurea], the inhibition in vivo at 15 mg/kg in assay [1] (setting [7]) was 38%; in assay [4] (setting [8]), 54%. In addition, the inhibition in vivo at 0.4 mg in assay [2] stood at 52%. For the same molecule, the inhibition at 3 µM in assay [3] amounted to 100%.
Turning to `CCCCCCCCCCN(C)C(=O)N(C)O` [Example 17, N-Decyl-N,N'-dimethyl-N'-hydroxyurea], the inhibition in vivo at 15 mg/kg came out at 79% in assay [1] (setting [7]) and 41% in assay [4] (setting [8]). Also, in assay [2], the “Inhibition … ED50” value is 24 µg. In addition, the inhibition in vivo at 0.4 mg in assay [2] was 88%. The same molecule displayed a half-maximal inhibitory concentration (IC50) in assay [3] of 160 nM.
`CCCCCCCCCCN(O)C(=O)NCCC(=O)OC` [Example 4, N-[2-(Methoxycarbonyl)ethyl]-N'-decyl-N'-hydroxyurea]: the inhibition in vivo at 15 mg/kg in assay [1] (setting [7]) was under 20%; in assay [4] (setting [8]) it was -39%. Moreover, the inhibition in vivo at 0.4 mg in assay [2] is 65%. Moreover, the inhibition at 3 µM in assay [3] was found to be 100%.
As for `CCCCCN1CCN(O)C1=O` [Example 23, 1-pentyl-3-hydroxyimidazolidin-2-one], the inhibition in vivo at 15 mg/kg amounted to 52% in assay [1] (setting [7]) and 97% in assay [4] (setting [8]). Moreover, the inhibition in vivo at 0.2 mg in assay [2] was determined as 29%. The same molecule displayed an IC50 in assay [3] of over 10000 nM.
Turning to `CCCCCCCCCCCCCCN(O)C(=O)N(C)C` [Example 15, N,N-Dimethyl-N'-tetradecyl-N'-hydroxyurea], the results for the inhibition in vivo at 50 mg/kg in assay [1] (setting [5]) and in assay [4] (setting [6]) were 46% and -26%, respectively. Moreover, the inhibition in vivo at 0.2 mg in assay [2] was 26%. Moreover, the inhibition at 3 µM in assay [3] was 100%.
In the case of `CCCCCCCCCCCCCN(O)C(=O)N(C)C` [Example 14, N,N-Dimethyl-N'-tridecyl-N'-hydroxyurea], the inhibition in vivo at 50 mg/kg in assay [1] (setting [5]) was determined as 49%. In addition, in assay [2], the “Inhibition … ED50” value stood at 156 µg and the inhibition in vivo at 0.2 mg is 95%. The inhibition at 3 µM in assay [3] was 95%. Moreover, the inhibition in vivo at 50 mg/kg in assay [4] (setting [6]) was -128%.
In the case of `CCCCCCCCCCN1CCN(O)C1=O` [Example 25, 1-Decyl-3-hydroxyimidazolidin-2-one], the inhibition in vivo at 20 mg/kg in assay [1] (IV dosing, 20 mg/kg, read-out: Inhibition of Arachidonate-Induced Bronchospasm (IV Dosing), % Inh. with Indomethacin) was 62%. In assay [2], the “Inhibition … ED50” value worked out at 90 µg and the inhibition in vivo at 0.4 mg came out at 81%. Further, the concentration for half-maximal inhibition (IC50) in assay [3] came out at 740 nM. Moreover, the inhibition in vivo at 20 mg/kg in assay [4] (IV dosing, 20 mg/kg, read-out: Inhibition of Arachidonate-Induced Bronchospasm (IV Dosing), % Inh. without Indomethacin) came to 85%.
For `CCCCCCCCCCCN(O)C(=O)N(C)C` [Example 12, N,N-Dimethyl-N'-undecyl-N'-hydroxyurea], in assay [1] (setting [5]), the inhibition in vivo at 50 mg/kg amounted to 40%. Further, in assay [2], the “Inhibition … ED50” value amounted to 65 µg and the inhibition in vivo at 0.2 mg was determined as 94%. The inhibition at 3 µM in assay [3] is 100%. The inhibition in vivo at 50 mg/kg in assay [4] (setting [6]) was -9%.
Consider `CCCCCCCCCCN(O)C(=O)NC` [Example 2, N-Methyl-N'-decyl-N'-hydroxyurea], for which the inhibition in vivo at 15 mg/kg in assay [1] (setting [7]) amounted to 44%. Besides, in assay [2], the “Inhibition … ED50” value was 29 µg and the inhibition in vivo at 0.4 mg stood at 82%. In assay [3], this molecule returned a concentration for half-maximal inhibition (IC50) of 90 nM. Besides, the inhibition in vivo at 15 mg/kg in assay [4] (setting [8]) was 32%.

(Values after patent US5066658A, “Substituted hydroxyureas” (Ortho Pharmaceutical Corporation, priority 1990, dated 1991).)
